This is an account of results in US6375942B1, “Skin healing ointment” (priority 1999, dated 2002).

The test system of this experiment is severe persistent rash caused by poison ivy. Put plainly: Case 1: ointment test on sufferer. Type of experiment: in vivo, Human. The note with it: adult; prescribed by dermatologist. The text has this:
They then sought out other sufferers on whom to test their ointment. The results follow:
Case 1: adult suffering from severe persistent rash caused by poison ivy. […] Application of ointment only once per day completely healed subject in 2½ days.

`CCCCC(=O)O[C@]1(C(=O)CO)[C@@H](C)C[C@H]2[C@@H]3CCC4=CC(=O)C=C[C@]4(C)[C@@]3(F)[C@@H](O)C[C@@]21C` [valisone]: the “outcome of prescribed treatment” value was “without success”.
